These results are taken from article PMC5393024, “Discovery and characterization of natural tropolones as inhibitors of the antibacterial target CapF from Staphylococcus aureus” (Scientific Reports, 2015).

A word on the Kd: it is the concentration at which binding is half-saturated. Lower therefore signals tighter binding.

One experiment concerns WT CapF. Briefly: DSC thermal stability of WT CapF. The class given is binding, Staphylococcus aureus. To be noted: 24 μM protein, 240 μM inhibitor. The procedure: Thermal stability of CapF was examined by DSC in a ultrasensitive VP-capillary micro-calorimeter (Microcal). Prior to the experiment the protein was equilibrated in a buffer composed of 50 mM HEPES (pH 7.5), 50 mM NaCl and 5% DMSO. The concentration of protein and inhibitor were adjusted to 24 μM and 240 μM, respectively. The samples were heated between 10 and 110 °C at a scan rate of 1 °C/min. Data analysis was carried out with ORIGIN7 using a two-state transition model.

Experiment [1] in a line: ITC titration of free Zn2+ in solution. The class given is binding. To be noted: 150 µM Zn2+ (ZnCl2) titrated with 1.65 mM compound. From the text: (§1) Because tropolone and its analogs have been described as metal chelators in proteins, we anticipated that binding of the inhibitor to CapF is governed by the Zn^2+ ion present in the cupin domain[12]. To confirm this hypothesis, we performed two different types of experiments. First, we determined the binding properties of 3-isopropenyl-tropolone to apo-CapF (i.e. Zn^2+-depleted CapF) and to holo-CapF (reconstituted with Zn^2+) by isothermal titration calorimetry (ITC). The stoichiometry is consistent with a 1:1 binding model.
Figure S3. Zn2+ governs the binding of inhibitor to CapF. (a) Titration of 150 µM Zn2+ (prepared
from ZnCl2) with 1.65 mM 3-isopropenyl-tropolone. (b) Fluorescence of the Zn2+-sensitive dye
FluoZin-3 (1.0 µM) in the presence of CapF (1 µM), CapF (1 µM) with 3-isopropenyl-tropolone […]
In general terms: In ITC the heat of successive injections is recorded.

The target in experiment [2] is T1, CapF lacking the His6-tag (Staphylococcus aureus, UniProt A0A0H3JP37).
T1 sequence (A0A0H3JP37 1-369): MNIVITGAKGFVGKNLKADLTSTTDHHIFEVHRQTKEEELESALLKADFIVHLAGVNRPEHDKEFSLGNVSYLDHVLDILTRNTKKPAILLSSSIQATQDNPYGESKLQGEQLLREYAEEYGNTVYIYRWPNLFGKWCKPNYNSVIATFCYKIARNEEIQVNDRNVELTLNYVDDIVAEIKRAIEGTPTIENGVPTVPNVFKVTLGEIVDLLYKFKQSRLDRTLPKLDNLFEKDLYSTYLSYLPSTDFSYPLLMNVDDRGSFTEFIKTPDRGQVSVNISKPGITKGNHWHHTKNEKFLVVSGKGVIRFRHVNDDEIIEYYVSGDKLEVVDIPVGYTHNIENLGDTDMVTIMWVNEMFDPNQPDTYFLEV
In words: ITC binding to CapF lacking the His6-tag. The procedure:
A control experiment with CapF lacking the His6-tag was carried to rule out the possibility of spurious effects caused by the affinity tag (Supplementary Information Figure S4).
Figure S4. Binding of 3-isopropyl-tropolone to CapF lacking the His6-tag. Titration of CapF (220 µM) with 2.2 mM inhibitor in a buffer composed of 10 mM HEPES (pH 7.5), 150 mM NaCl, and 5% DMSO at 25 °C. A construct of full-length CapF bearing a cleavable His6-tag was prepared and purified exactly as that of CapF Δ57-70 (see Methods section for the detailed protocol of CapFΔ57-70), except that (i) the dialysis buffer after to reconstitute the enzyme with Zn2+ contained 150 mM NaCl (instead of 50 mM) and 12.5 µM ZnCl2 (instead of 10 µM), and (ii) the buffer of the size exclusion chromatography step contained 10 mM HEPES (instead of 50 mM) and 150 mM NaCl (instead of 50 mM). The values of the thermodynamic parameters […]
kcal mol-1, and n = 0.92 ± 0.1.
(1 picture or pasted object on this page, not shown here)

Experiment [3] relates to apo-CapF (Zn^2+-depleted). Briefly: ITC binding to Zn2+-depleted CapF (1 mM EDTA). On the set-up: species or system Staphylococcus aureus. Particulars: 150 μM CapF, 1.65 mM inhibitor.
Text: as §1
Figure 3 Binding of 3-isopropenyl-tropolone to CapF requires Zn^2+. CapF (150 μM) reconstituted with Zn^2+ was titrated with 1.65 mM inhibitor in the absence (a) or the presence (b) of 1 mM EDTA. The upper panels correspond to the titration data, and the lower panels to the integrated binding isotherms. (c) Binding competition assay. CapF (1.0 μM) reconstituted with Zn^2+ in the presence of the Zn^2+-sensitive dye FluoZin-3 (1.0 μM) was titrated with 3-isopropenyl-tropolone (λEX = 490 nm; λEM = 520 nm).
Binding constants and thermodynamic parameters of the interaction between CapF and fragment compounds were determined with an iTC200 instrument (GE Healthcare) at 25 °C. Samples were equilibrated in a buffer composed of 10 mM HEPES (pH 7.4) and 150 mM NaCl supplemented with 5% (v/v) DMSO. CapF at 150–270 μM was titrated with compounds at 0.5–1.65 mM. […]

A further experiment concerns the target CapF. In words: SPR binding to immobilized CapF. Particulars: 25 °C. On the set-up: species or system Staphylococcus aureus. From the text:
To identify small-molecule inhibitors of CapF we employed fragment-based methodologies (Supplementary Information Figure S1)[13][14]. A fragment library consisting of 1,994 compounds was obtained from the Drug Discovery Initiative program (The University of Tokyo, see the Methods section for an brief description of the features of this library). This library was employed to screen for potential inhibitors of CapF using the technique of surface plasmon resonance (SPR). This screening methodology identified compounds with the ability to bind to the target protein but not by their inhibitory potency. Inhibition was only assessed with the selected hit compound using two separate enzymatic assays (see below). To maximize the sensitivity of the SPR signal the microtiter-based assay mode was employed. The values of the parameters CV (1.0%) and Z-factor (0.93) were monitored throughout the screen. […]
A total of 15 compounds selected from the library screening were next evaluated with SPR at three different concentrations (100 μM, 10 μM, and 1 μM) to detect compounds giving false positive signals, which are generally known as nonspecific and promiscuous binders. […] Lastly, we determined the binding affinity of these five compounds for CapF with SPR. […]
On the technique in general: SPR reads the build-up and loss of mass on a sensor chip optically.

SMILES strings stand for the structures.

As for `C=C(C)c1ccccc(=O)c1O` [3-isopropenyl-tropolone], in the experiment on WT CapF, the “ΔTM (decrease in thermal stability)” value is 5.2 ± 0.4 °C. Besides, the TM in the experiment on WT CapF (WT CapF alone 59.9 ± 0.2) worked out at 54.7 ± 0.2 °C. Moreover, in experiment [1], the “binding to free-Zn^2+ in solution by ITC” value is on record as “not detected”. Also, the Kd in experiment [2] is 13 ± 1 µM. In experiment [2] (ITC, 25 °C), the “-TΔS” value was -3.0 ± 0.4 kcal/mol, the n is 0.92 ± 0.1 and the ΔH was -3.6 ± 0.3 kcal/mol. The “binding to apo-CapF by ITC” value in experiment [3] is “does not bind”. In addition, the “binding affinity for CapF with SPR” value on CapF is given as “sub-millimolar”.
